Earlier results, collected in patent publication US20080242731A1, “TOPICAL ANESTHESIA FORMULATION FOR BODILY CAVITIES” (T&A PHARMA PTY. LIMITED, priority 2003, published 2008).

Conditions: maintained at pH 7, low concentration, within 4 weeks

CCN(CC)CC(=O)Nc1c(C)cccc1C [lignocaine, Lignocaine]
degradation: 35%
